The source of these data is patent publication US20050282743A1, “Molecular interactions in cells” (Arbor Vita Corporation, priority 2001, published 2005).

Experiment in all cases: G' assay (10 uM PL peptide), results of TABLE 7 and TABLE 12
Common to all, as to type: binding

In assay [1] the target is T1, PDZ protein (GST-PDZ fusion) (Homo sapiens, UniProt P57105).
T1 construct: made in house; host or cells: E. coli (DH5alpha, BL21 or JM109)
T1 sequence (P57105 1-145): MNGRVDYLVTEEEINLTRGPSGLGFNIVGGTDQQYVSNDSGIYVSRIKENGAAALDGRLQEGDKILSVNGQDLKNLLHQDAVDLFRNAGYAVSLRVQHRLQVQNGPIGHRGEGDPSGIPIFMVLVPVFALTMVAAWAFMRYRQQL
The conditions noted are these: PDZ Outer Membrane, PDZ Domain 1. Put shortly:
(§1)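 Same steps as the G-zero format, apart from a peptide concentration of 10 uM in place of 20 uM in step 2. Amino-terminally biotinylated PL peptides bind GST-PDZ fusions, and retained peptide is quantified by 450 nm absorbance.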

The target in assay [2] is T2, PDZ protein (GST-PDZ fusion) (Homo sapiens, UniProt Q12923).
T2 construct: made in house; host or cells: E. coli (DH5alpha, BL21 or JM109)
A digest of the protocol:
as §1

Assay [3] addresses T3, PDZ protein (GST-PDZ fusion) (Homo sapiens, UniProt Q5TCQ9).
T3 construct: made in house; host or cells: E. coli (DH5alpha, BL21 or JM109)
T3 sequence (Q5TCQ9 1-1481): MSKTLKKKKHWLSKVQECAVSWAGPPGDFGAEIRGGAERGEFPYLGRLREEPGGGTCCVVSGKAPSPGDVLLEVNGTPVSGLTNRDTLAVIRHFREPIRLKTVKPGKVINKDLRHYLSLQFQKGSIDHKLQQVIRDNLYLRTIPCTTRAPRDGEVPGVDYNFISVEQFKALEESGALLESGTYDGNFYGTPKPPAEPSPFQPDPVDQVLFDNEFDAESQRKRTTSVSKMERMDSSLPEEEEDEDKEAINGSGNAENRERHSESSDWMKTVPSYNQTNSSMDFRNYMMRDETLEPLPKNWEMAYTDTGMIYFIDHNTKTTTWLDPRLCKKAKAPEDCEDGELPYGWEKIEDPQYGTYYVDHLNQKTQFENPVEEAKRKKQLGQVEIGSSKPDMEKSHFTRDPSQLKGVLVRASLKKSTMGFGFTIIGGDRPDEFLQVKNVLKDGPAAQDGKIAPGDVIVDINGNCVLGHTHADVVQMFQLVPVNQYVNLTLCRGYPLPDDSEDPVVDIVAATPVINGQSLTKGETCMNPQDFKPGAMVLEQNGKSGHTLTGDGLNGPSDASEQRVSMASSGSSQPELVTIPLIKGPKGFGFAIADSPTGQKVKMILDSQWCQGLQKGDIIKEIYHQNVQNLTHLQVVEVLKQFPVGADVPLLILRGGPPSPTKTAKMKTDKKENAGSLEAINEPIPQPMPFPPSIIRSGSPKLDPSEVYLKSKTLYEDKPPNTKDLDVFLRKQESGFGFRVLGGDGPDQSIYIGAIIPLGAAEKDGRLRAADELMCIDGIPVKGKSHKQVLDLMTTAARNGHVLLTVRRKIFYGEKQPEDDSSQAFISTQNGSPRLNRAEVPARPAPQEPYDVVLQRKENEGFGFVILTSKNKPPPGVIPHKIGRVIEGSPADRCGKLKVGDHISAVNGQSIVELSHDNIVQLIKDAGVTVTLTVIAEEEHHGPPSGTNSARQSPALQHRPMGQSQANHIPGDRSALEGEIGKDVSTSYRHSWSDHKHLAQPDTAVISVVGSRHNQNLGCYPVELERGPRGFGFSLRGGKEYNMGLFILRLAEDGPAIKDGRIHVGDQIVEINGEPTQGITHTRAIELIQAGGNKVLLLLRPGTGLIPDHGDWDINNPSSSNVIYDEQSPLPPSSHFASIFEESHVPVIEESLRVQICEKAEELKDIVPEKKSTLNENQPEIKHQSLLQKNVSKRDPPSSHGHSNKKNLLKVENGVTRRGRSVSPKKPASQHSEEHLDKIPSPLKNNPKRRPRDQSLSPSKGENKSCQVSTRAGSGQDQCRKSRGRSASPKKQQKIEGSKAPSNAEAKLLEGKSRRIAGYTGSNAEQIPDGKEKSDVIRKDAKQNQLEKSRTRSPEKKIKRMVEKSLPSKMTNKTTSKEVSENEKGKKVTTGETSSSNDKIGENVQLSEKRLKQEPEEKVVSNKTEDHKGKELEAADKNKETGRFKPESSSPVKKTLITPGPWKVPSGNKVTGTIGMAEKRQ
A digest of the protocol: as §1

The target in assay [4] is T4, PDZ protein (GST-PDZ fusion) (Homo sapiens, UniProt Q6P0Q8).
T4 construct: made in house; host or cells: E. coli (DH5alpha, BL21 or JM109)
A digest of the protocol: as §1

For assay [5], the system named is PDZ protein (GST-PDZ fusion). A digest of the protocol: as §1

Ends that are not written are not given here. * marks the point of attachment. Biotin = O=C1N[C@H]2[C@H](CS[C@H]2CCCCC(=O)*)N1

T4 sequence (Q6P0Q8 whole entry, the tested form may be a part): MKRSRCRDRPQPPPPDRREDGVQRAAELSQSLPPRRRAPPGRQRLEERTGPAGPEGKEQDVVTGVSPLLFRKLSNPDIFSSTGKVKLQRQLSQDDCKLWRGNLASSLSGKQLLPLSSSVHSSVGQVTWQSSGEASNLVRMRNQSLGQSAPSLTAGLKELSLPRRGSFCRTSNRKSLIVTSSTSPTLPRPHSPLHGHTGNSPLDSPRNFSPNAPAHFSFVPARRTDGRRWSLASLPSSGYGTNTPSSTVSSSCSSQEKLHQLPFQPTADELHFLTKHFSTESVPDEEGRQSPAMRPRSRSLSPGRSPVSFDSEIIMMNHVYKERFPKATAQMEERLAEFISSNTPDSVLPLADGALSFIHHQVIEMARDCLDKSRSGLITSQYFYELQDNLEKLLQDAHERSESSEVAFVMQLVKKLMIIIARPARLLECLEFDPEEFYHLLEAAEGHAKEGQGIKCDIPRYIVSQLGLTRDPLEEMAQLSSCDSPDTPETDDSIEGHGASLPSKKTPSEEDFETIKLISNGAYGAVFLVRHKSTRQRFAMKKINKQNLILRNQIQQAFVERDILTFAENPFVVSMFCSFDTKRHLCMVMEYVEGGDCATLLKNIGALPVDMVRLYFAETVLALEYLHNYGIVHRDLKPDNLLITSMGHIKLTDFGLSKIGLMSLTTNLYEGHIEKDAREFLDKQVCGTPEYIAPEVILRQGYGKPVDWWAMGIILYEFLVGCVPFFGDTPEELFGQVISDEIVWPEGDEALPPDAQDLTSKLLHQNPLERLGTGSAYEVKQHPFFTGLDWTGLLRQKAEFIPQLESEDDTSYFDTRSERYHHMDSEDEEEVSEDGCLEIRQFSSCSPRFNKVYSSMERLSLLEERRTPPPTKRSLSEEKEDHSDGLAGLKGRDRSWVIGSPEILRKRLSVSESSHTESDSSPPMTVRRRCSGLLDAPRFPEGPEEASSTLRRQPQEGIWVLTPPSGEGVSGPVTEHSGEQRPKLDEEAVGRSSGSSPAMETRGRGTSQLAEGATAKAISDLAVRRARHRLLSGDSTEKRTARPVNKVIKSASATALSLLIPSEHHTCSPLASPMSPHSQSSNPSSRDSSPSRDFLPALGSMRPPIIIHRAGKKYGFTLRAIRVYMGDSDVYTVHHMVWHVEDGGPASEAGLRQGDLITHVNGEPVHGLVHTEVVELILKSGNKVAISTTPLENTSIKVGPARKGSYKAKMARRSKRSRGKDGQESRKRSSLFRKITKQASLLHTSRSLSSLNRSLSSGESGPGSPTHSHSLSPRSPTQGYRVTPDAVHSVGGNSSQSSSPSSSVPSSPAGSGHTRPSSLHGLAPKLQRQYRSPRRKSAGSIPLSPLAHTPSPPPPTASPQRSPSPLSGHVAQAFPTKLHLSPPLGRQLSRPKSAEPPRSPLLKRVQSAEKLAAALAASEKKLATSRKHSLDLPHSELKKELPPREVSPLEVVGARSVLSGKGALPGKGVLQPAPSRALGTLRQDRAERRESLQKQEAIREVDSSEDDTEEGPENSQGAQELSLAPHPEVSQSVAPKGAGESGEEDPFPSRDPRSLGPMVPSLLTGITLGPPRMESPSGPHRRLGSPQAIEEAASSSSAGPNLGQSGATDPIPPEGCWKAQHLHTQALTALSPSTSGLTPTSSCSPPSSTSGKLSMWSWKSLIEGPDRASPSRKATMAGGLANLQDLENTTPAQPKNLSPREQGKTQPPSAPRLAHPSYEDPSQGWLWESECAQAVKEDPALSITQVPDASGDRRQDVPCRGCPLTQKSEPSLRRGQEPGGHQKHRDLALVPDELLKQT
T2 sequence (Q12923 whole entry, the tested form may be a part): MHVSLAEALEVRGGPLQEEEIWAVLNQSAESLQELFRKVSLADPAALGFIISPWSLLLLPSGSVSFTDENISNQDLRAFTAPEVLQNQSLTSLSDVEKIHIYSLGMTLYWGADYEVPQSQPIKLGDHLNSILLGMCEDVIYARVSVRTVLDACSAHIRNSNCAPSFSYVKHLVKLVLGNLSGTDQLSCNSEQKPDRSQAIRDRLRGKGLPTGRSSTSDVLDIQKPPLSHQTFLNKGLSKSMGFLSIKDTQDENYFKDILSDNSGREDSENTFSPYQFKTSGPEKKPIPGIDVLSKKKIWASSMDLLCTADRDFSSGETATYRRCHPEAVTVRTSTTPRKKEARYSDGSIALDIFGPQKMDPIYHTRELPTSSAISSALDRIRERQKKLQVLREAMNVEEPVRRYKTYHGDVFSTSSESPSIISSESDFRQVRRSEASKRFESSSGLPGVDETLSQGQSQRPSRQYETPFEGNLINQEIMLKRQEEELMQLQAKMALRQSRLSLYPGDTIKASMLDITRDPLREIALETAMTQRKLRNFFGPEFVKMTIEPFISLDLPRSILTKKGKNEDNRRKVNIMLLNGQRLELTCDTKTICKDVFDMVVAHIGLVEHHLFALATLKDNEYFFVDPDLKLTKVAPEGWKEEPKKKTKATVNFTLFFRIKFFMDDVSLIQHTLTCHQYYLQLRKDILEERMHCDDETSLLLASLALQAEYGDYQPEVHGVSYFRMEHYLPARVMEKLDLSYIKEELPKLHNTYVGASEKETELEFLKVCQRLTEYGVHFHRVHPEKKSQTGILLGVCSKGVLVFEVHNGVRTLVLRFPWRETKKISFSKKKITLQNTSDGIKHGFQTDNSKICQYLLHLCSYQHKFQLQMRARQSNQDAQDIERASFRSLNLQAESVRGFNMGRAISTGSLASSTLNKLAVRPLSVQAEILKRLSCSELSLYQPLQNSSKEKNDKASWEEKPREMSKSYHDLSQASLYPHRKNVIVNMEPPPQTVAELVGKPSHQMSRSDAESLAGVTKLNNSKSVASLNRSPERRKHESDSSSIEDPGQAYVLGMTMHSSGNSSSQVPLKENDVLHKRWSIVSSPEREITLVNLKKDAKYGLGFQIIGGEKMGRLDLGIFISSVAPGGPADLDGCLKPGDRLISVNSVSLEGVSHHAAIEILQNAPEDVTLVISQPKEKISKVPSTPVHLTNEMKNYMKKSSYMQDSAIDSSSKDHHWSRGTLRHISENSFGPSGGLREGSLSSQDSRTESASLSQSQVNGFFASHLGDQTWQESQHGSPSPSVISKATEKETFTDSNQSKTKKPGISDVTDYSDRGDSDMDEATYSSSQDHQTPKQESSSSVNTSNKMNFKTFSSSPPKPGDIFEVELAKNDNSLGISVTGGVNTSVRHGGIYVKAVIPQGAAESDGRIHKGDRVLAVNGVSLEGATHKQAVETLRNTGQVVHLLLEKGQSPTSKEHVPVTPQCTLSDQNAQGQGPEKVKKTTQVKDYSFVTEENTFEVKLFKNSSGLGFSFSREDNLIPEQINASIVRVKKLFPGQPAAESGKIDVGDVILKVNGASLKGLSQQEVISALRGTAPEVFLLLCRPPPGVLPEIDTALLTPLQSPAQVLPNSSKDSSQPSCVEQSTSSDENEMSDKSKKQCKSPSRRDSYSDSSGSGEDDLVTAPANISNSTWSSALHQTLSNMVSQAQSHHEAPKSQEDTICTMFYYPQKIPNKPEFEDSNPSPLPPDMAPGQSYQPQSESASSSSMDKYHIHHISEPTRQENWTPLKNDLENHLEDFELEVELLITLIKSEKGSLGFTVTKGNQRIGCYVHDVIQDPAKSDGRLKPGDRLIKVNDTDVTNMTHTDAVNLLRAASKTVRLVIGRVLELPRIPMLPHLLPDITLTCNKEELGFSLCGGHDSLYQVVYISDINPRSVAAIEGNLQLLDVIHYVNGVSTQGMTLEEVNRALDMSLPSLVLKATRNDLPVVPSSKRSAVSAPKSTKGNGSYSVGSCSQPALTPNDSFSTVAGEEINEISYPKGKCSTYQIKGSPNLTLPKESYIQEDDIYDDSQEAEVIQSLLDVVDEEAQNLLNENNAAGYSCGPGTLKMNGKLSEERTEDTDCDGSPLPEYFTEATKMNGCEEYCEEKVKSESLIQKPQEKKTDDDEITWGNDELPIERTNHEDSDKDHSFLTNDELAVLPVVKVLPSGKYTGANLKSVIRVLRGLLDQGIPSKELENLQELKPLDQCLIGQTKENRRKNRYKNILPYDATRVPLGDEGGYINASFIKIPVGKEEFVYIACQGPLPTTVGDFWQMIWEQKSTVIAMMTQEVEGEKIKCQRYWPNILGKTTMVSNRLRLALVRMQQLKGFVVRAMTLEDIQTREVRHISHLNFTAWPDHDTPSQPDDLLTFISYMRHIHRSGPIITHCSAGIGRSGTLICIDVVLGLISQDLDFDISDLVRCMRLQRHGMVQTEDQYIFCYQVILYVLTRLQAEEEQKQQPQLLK

Consider `CC[C@H](C)[C@H](NC(=O)[C@H](CCCCN)NC(=O)[C@@H](NC(=O)[C@H](CO)NC(=O)[C@@H]1CCCN1C(=O)[C@H](Cc1ccccc1)NC(=O)[C@@H](NC(=O)[C@@H](NC(=O)[C@H](CCCNC(=N)N)NC(=O)[C@H](CCC(=O)O)NC(=O)[C@H](CC(C)C)NC(=O)[C@H](CC(C)C)NC(=O)[C@H](CC(C)C)NC(=O)[C@@H](NC(=O)CNC(=O)[C@@H](NC(=O)CCCC[C@@H]1SC[C@@H]2NC(=O)N[C@@H]21)C(C)C)[C@@H](C)O)C(C)C)[C@@H](C)CC)C(C)C)C(=O)N[C@@H](C)C(=O)N[C@H](C(=O)N[C@@H](CC(C)C)C(=O)N[C@H](C(=O)O)C(C)C)[C@@H](C)O` [Adenovirus E4 Type9], for which the Classification in assay [1] (Protein Optimal Conc 5) is listed as 5 (A450 nm of 4 more than 2× repeated); in assay [2] (PDZ PTPL-1, PDZ Domain 2, Protein Optimal Conc 5), 3 (A450 nm 2-3); in assay [2] (PDZ PTPL-1, PDZ Domain 4, PL peptide 10 uM) it was 4 (A450 nm 3-4); in assay [3] (PDZ KIAA1634, PDZ Domain 1, PL peptide 10 uM), 5 (A450 nm of 4 more than 2× repeated); in assay [3] (PDZ KIAA1634, PDZ Domain 2, Protein Optimal Conc 5) it was 5 (A450 nm of 4 more than 2× repeated); in assay [3] (PDZ KIAA1634, PDZ Domain 4, Protein Optimal Conc 5), 4 (A450 nm 3-4). The Classification in assay [4] (PDZ KIAA0807(S), PDZ Domain 1, Protein Optimal Conc 5) is recorded as 3 (A450 nm 2-3); in assay [4] (PDZ KIAA807 (domain not given), PL peptide 10 uM) it was 4 (A450 nm 3-4); in assay [5] (PDZ BAI-1, PDZ Domain 2, Protein Optimal Conc 0.3), 5 (A450 nm of 4 more than 2× repeated); in assay [5] (PDZ BAI-1, PDZ Domain 3, Protein Optimal Conc 0.5), 5 (A450 nm of 4 more than 2× repeated); in assay [5] (PDZ BAI-1, PDZ Domain 4, Protein Optimal Conc 0.3), 5 (A450 nm of 4 more than 2× repeated); in assay [5] (PDZ BAI-1, PDZ Domain 6, PL peptide 10 uM), 1 (A450 nm 0-1). Further, the Classification in assay [5] (PDZ Connector Enhancer, PDZ Domain 1, Protein Optimal Conc 5) was 3 (A450 nm 2-3); in assay [5] (PDZ FLJ 00011, PDZ Domain 1, PL peptide 10 uM) it was 1 (A450 nm 0-1); in assay [5] (PDZ HEMBA 1003117, PDZ Domain 1, Protein Optimal Conc 5), 3 (A450 nm 2-3).

As to “ELLQFCRTPNPALKNGQYWV (Biotin-ELLQFCRTPNPALKNGQYWV)”, the Classification was 1 (A450 nm 0-1) in assay [1]; 5 (A450 nm of 4 more than 2× repeated) in assay [2] (PDZ PTPL-1, PDZ Domain 4); 5 (A450 nm of 4 more than 2× repeated) in assay [3] (PDZ KIAA1634, PDZ Domain 1); 2 (A450 nm 1-2) in assay [3] (PDZ KIAA1634, PDZ Domain 5); 1 (A450 nm 0-1) in assay [4] (PDZ KIAA807); 1 (A450 nm 0-1) in assay [4] (PDZ KIAA0807(S), PDZ Domain 1). Moreover, the Classification in assay [5] (PDZ BAI-1, PDZ Domain 2) is given as 2 (A450 nm 1-2); in assay [5] (PDZ BAI-1, PDZ Domain 6), 4 (A450 nm 3-4); in assay [5] (PDZ HEMBA 1003117, PDZ Domain 1) it was 5 (A450 nm of 4 more than 2× repeated).

In the case of “ISGTPTSTMVHGMTSSSSVV (Biotin-ISGTPTSTMVHGMTSSSSVV) [Clasp-2]”, the Classification was 1 (A450 nm 0-1) in assay [1]; 1 (A450 nm 0-1) in assay [2] (PDZ PTPL-1, PDZ Domain 2); 1 (A450 nm 0-1) in assay [3] (PDZ KIAA1634, PDZ Domain 1); 1 (A450 nm 0-1) in assay [3] (PDZ KIAA1634, PDZ Domain 2); 1 (A450 nm 0-1) in assay [4] (PDZ KIAA807, PDZ Domain not given); 1 (A450 nm 0-1) in assay [5] (PDZ BAI-1, PDZ Domain 2). Further, the Classification in assay [5] (PDZ BAI-1, PDZ Domain 5) is recorded as 1 (A450 nm 0-1).
